Structures can show the parent of a compound that is named as a salt.
Legend:
[1] = Toxicity (mice), I.G. (Table III); assay type: in vivo; settings: mouse, in vivo, po
Excerpt: (§1) The products were used in the form of the trihydrochloride, except the product under the letter "b" which was used in the form of the dihydrochloride.

mice [2] = assay: Toxicity (mice), I.G. (Table III); assay type: in vivo
Excerpt: as §1

[3] = Set of methods and tests of the activity of the products (vasodilatatory, spasmolytic, antihistaminic, cholinolytic, sedative, depressant, neurotoxic)
Excerpt: The set of methods and tests effected enabled us to appreciate the activity of the products according to the invention. It clearly follows therefrom that the products wherein: […]

[4] = Acute toxicity on mice, orally and intraperitoneally (Table I); assay type: in vivo; settings: mouse, in vivo, suspended in gum syrup or labrafil
Method: (§2) Tests were performed on mice, orally (P.O.) and intraperitoneally (I.P.), the active compounds being suspended in gum syrup or labrafil.

mice [5] = assay: as above; assay type: in vivo; settings: for LD0: suspended in gum syrup or labrafil
Method: as §2

[6] = Acute toxicity, oral, mice (Table II); assay type: in vivo; settings: mouse, in vivo, aqueous solution
Method: (§3) Tests were performed on mice and albino rats, the active compound being administered orally in the form of an aqueous solution.

mice [7] = assay: Acute toxicity, oral, mice (Table II); assay type: in vivo; settings: aqueous solution
Method: as §3

[8] = Acute toxicity, oral, albino rats (Table II); assay type: in vivo; settings: rat, in vivo, aqueous solution
Method: as §3

albino rats = assay: Acute toxicity, oral, albino rats (Table II); assay type: in vivo; settings: aqueous solution
Method: as §3

cerebral circulation = assay: Cerebral circulation: PO2 of the venous cerebral blood (sinus sagittalis) in cats anaesthetized with Nembutal; assay type: in vivo; settings: intravenous perfusion
Method: In the course of a series of experiments on cats anaesthetized with Nembutal, the cynetics of PO2 of the venous cerebral blood were measured (from the sinus sagittalis) during an intravenous perfusion of this product.

In the case of `Fc1ccc(C(c2ccccn2)N2CCN(CC=Cc3ccccc3)CC2)cc1` (stereo not drawn) [1(2'-pyridyl-4"-fluorophenyl)-methyl-4-cinnamyl piperazine], the LD50 [1] is reported as 400 mg/kg, the LD0 (mice [2]; mouse, in vivo) is reported as 300 mg/kg and the antihistaminic activity [3] is reported as “well-defined”. For the same molecule, the depressant properties [3] was “do not show”, the neurotoxic properties [3] was “do not show” and the spasmolytic activity [3] was “well-defined”. For the same molecule, the vasodilatatory activity [3] was “well-defined”.

With `C(=Cc1ccccc1)CN1CCN(C(c2ccccc2)C2CC2)CC1` (stereo not drawn) [--CH2 --, 1-(cyclopropylphenyl)-methyl-4-cinnamyl piperazine] the LD50 ([4]; po, P.O.) was 570 mg/kg and the “LD0” value (mice [5]; P.O.) was about 300 mg/kg.

For `C(=Cc1ccccc1)CN1CCN(C(c2ccccc2)c2ccccn2)CC1` (stereo not drawn) [1-(2'-pyridylphenyl)-methyl-4-cinnamyl piperazine], the LD50 [6] was 295 mg/kg, the LD0 (mice [7]) was 175 mg/kg and the LD50 [8] was 1200 mg/kg. It also gave an LD0 (albino rats) of 200 mg/kg.

For `Clc1ccc(C(c2ccccn2)N2CCN(CC=Cc3ccccc3)CC2)cc1` (stereo not drawn) [1-(2'-pyridyl-4"-chlorophenyl)-methyl-4-cinnamyl piperazine], the LD50 [1] was 1180 mg/kg, the LD0 (mice [2]; mouse, in vivo) was 400 mg/kg and the antihistaminic activity [3] was “well-defined”. For the same molecule, the depressant properties [3] was “do not show”, the neurotoxic properties [3] was “do not show” and the spasmolytic activity [3] was “well-defined”. For the same molecule, the vasodilatatory activity [3] was “well-defined” and the “activity with respect to cerebral circulation” value (cerebral circulation) was “important activity”.

In the case of `Clc1ccc(C(c2ccccn2)N2CCN(CC=Cc3ccccc3)CC2)c(Cl)c1` (stereo not drawn) [1-(2'-pyridyl-2",4"-dichlorophenyl)-methyl-4-cinnamyl piperazine trihydrochloride], the LD50 [1] is reported as 600 mg/kg, the LD0 (mice [2]; mouse, in vivo) is reported as 400 mg/kg and the antihistaminic activity [3] is reported as “well-defined”. The depressant properties [3] was “do not show”, the neurotoxic properties [3] was “do not show” and the spasmolytic activity [3] was “well-defined”. The vasodilatatory activity [3] was “well-defined”.

With `O=C(C=Cc1ccccc1)N1CCN(C(c2ccccc2)C2CC2)CC1` (stereo not drawn) [C = O, 1-(cyclopropylphenyl)-methyl-4-cinnamoyl piperazine] the LD50 ([4]; ip, I.P.) was 1480 mg/kg, the LD50 ([4]; po, P.O.) was over 4000 mg/kg and the “LD0” value (mice [5]; I.P.) was over 400 mg/kg. For the same molecule, the “LD0” value (mice [5]; P.O.) was over 1000 mg/kg and the toxicity (mice [5]; in words) was “very low toxicity”.

In the case of `CC(c1ccc(Cl)cc1)(c1ccccn1)N1CCN(CC=Cc2ccccc2)CC1` (stereo not drawn) [1-(2'-pyridyl-4"-chlorophenylmethyl)-methyl-4-cinnamyl piperazine], the LD50 ([1]; mice, I.G.) is reported as 500 mg/kg, the LD0 (mice [2]; mice, I.G.) is reported as 400 mg/kg and the sedative activity [3] is reported as “presents a sedative activity”.

Source: US3940386A, “Substituted cinnamoyl-piperazine-pyridyl compound” (Cermol S.A., priority 1973, dated 1976)
